Results as given in paper PMC11195807, “Development of a multi-targeted chemotherapeutic approach based on G-quadruplex stabilisation and carbonic anhydrase inhibition” (Journal of Enzyme Inhibition and Medicinal Chemistry, 2024).
Several values for one entry are separate records, joined by “and”; a condition that tells them apart may be missing. Equal entries are not always repeated.

Experiments:
c-Kit1 = experiment: CD melting experiments, c-Kit1 GQ; assay type: binding; conditions: for ΔT1/2 c-Kit1: 2 molar equiv compound, T1/2 of DNA alone 55.0 °C; for ΔΔT1/2 c-Kit1: ΔT1/2 of compound minus ΔT1/2 of berberine, 2 molar equiv
Excerpt: (§1) The 21 synthesised MTDLs were screened for their ability to bind to and stabilise DNA GQ-forming sequences, compared to berberine, by CD experiments. Indeed, circular dichroism has shown to be outstandingly useful and informative for noncanonical nucleic acid secondary structures. For this purpose, a G-rich 23-nucleotide truncation (23-nt) of the human telomeric sequence (Tel23) and two G-rich motifs from the promoter regions of c-KIT (c-Kit1) and c-MYC (c-Myc) oncogenes were employed. First, the overall topology adopted by each DNA sequence in K^+-containing buffer was verified by CD spectra. […] GQ conformation (Figure S1, Supporting Information). On the other hand, c-Kit1 and c-Myc sequences adopted a parallel GQ conformation, showing a distinctive positive band at around 260 nm and a negative one at ∼240 nm in their CD spectra (Figures S2 and S3, Supporting Information).
(§2) Afterwards, the GQ-stabilising properties of the molecules were assessed by CD melting experiments, measuring the differences in the apparent melting temperatures of the DNA in the presence and absence of compounds (ΔT1/2) (Figures S4–S6 and Table S2, Supporting Information). […] This could be explained by considering the higher accessibility of the external G-tetrads in the case of parallel GQs compared to the hybrid one[52], which would allow the additional CAI moiety of conjugated compounds to be better accommodated in the binding site. […] . […] .

hCA IX = target: T1, hCA IX (Homo sapiens, UniProt Q16790); experiment: stopped-flow CO2 hydrase assay, hCA IX; assay type: biochemical; conditions: for Selectivity index (SI) I/IX: hCA IX over hCA I; for Selectivity index (SI) II/IX: hCA IX over hCA II; for Ki: mean ± SEM of three assays
T1 construct: made in house
Excerpt: (§3) An Applied Photophysics stopped-flow instrument has been used for assaying the CA-catalysed CO2 hydration activity, as reported earlier. […] All hCA isoforms were recombinant proteins, being obtained in-house as reported earlier.

Tel23 = experiment: CD melting experiments, Tel23 GQ; assay type: binding, human; conditions: for ΔT1/2 Tel23: 2 molar equiv compound, T1/2 of DNA alone 53.5 °C; for ΔΔT1/2 Tel23: ΔT1/2 of compound minus ΔT1/2 of berberine, 2 molar equiv
Excerpt: as §1, §2

hCA XII = target: T2, hCA XII (Homo sapiens, UniProt O43570); experiment: stopped-flow CO2 hydrase assay, hCA XII; assay type: biochemical; conditions: for Selectivity index (SI) I/XII: hCA XII over hCA I; for Selectivity index (SI) II/XII: hCA XII over hCA II; for Ki: mean ± SEM of three assays
T2 construct: made in house
Excerpt: as §3

hCA I = target: T3, hCA I (Homo sapiens, UniProt P00915); experiment: stopped-flow CO2 hydrase assay, hCA I; assay type: biochemical
T3 construct: made in house
Procedure: (§4) An Applied Photophysics stopped-flow instrument has been used for assaying the CA-catalysed CO2 hydration activity, as reported earlier. The enzyme concentrations were in the range 5–12 nM. All hCA isoforms were recombinant proteins, being obtained in-house as reported earlier.

Hairpin = experiment: CD melting experiments, hairpin DNA duplex; conditions: 2 molar equiv compound, T1/2 of DNA alone 66.0 °C
Procedure: To evaluate the possible binding and stabilisation of double-stranded DNA, a 27-nt long hairpin-forming sequence (Hairpin) was employed.
In particular, the following DNA sequences were synthesised and employed for the experiments: d([sequence]) (c-Kit1), d([sequence]) (c-Myc), d([sequence]) (Tel23), and d([sequence]) (Hairpin). Oligonucleotides were dissolved in the proper buffer and their concentration was measured by UV absorption at 90 °C, as previously reported[80]^,[81]. To achieve the correct folding of the sequences, the DNA solutions were heated in a water bath at 90 °C for 5 min, and then allowed to cool slowly to room temperature overnight. Then, DNA samples were stored at 4 °C for 24 h, before data acquisition.
The samples were prepared by dissolving the oligonucleotides in 5 mM KH2PO4/K2HPO4 buffer (pH 7.0) containing 20 mM KCl (or LiCl in the case of c-Myc because of its high thermal stability). DNA concentrations of 20 µM for GQs and 30 µM for Hairpin were used. For each compound, a 10 mM stock solution in 100% DMSO was prepared. […] CD spectra were acquired at 20 and 100 °C, in the 230–320 nm wavelength range, averaged over three scans and subtracted of the buffer baseline. The scanning speed was set to 100 nm/min, with a 0.5 s response time, and 1 nm bandwidth. CD melting experiments were carried out in the 20–100 °C temperature range, with 1 °C/min heating rate, by following changes in the CD signal at the wavelengths of the maximum CD intensity (i.e. 263 nm for c-Kit1 and c-Myc, and 290 nm for Tel23). As for Hairpin, CD melting curves were recorded by following the changes in the CD signal at 252 nm (the wavelength of the minimum CD intensity). CD melting curves were normalised between 0 and 1. […] The ΔT1/2 values correspond to the difference in the T1/2 values of the nucleic acid structures in the presence and absence of the compounds. All experiments were performed in duplicate, and the reported values are the mean of the two measurements.

hCA II = target: T4, hCA II (Homo sapiens, UniProt P00918); experiment: stopped-flow CO2 hydrase assay, hCA II; assay type: biochemical
T4 construct: made in house
Excerpt: . The structure-activity relationship is discussed separately for the two compound subsets. Another code pattern is included for the MTDLs in Table 1, which indicates the derivative CAI type (sulphonamide, S or coumarin, C) and the number of atoms in the spacers connecting either berberine and the triazole (carbon atoms) or the triazole and the benzenesulfonamide/coumarin scaffolds (carbon or oxygen atoms).
as §4

c-Myc = experiment: CD melting experiments, c-Myc GQ; assay type: binding; conditions: for ΔT1/2 c-Myc: 1 molar equiv compound, T1/2 of DNA alone 70.0 °C; for ΔΔT1/2 c-Myc: ΔT1/2 of compound minus ΔT1/2 of berberine, 1 molar equiv
Excerpt: as §1, §2

[1] = sulphonamides, inhibitor-enzyme incubation 15 min
[2] = sulphonamides, inhibitor-enzyme incubation 15 min, mean ± SEM of three assays
[3] = coumarins, inhibitor-enzyme incubation 6 h

T2 sequence (O43570 25-354): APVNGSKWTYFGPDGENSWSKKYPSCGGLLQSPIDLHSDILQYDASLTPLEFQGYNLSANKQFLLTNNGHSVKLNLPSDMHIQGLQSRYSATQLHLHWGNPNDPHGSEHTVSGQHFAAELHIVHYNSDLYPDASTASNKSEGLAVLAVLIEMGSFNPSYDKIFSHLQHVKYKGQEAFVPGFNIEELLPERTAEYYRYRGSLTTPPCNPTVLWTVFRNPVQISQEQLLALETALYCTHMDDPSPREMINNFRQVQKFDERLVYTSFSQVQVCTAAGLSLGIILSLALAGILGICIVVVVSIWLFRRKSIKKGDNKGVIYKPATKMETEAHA
T3 sequence (P00915 whole entry): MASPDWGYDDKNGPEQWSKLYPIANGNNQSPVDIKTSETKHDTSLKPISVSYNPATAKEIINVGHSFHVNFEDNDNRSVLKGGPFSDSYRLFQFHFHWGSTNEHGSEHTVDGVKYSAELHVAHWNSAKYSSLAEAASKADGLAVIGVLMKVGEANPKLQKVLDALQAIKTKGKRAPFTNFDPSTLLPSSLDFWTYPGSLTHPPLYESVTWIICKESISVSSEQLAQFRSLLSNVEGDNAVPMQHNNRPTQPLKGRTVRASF

SMILES | Selectivity index (SI) I/IX (hCA IX) | Selectivity index (SI) II/IX (hCA IX) | Ki (hCA IX; [1]) | Selectivity index (SI) I/XII (hCA XII) | Selectivity index (SI) II/XII (hCA XII) | Ki (hCA XII; [1]) | Ki (hCA I; [2]) | Ki (hCA II; [2]) | Ki (hCA IX; [3]) | Ki (hCA XII; [3]) | Ki (hCA I; [3]) | Ki (hCA II; [3]) | ΔT1/2 c-Kit1 (c-Kit1) | ΔΔT1/2 c-Kit1 (c-Kit1) | ΔT1/2 Tel23 (Tel23) | ΔΔT1/2 Tel23 (Tel23) | ΔT1/2 Hairpin (Hairpin) | ΔT1/2 c-Myc (c-Myc) | ΔΔT1/2 c-Myc (c-Myc) | other results
COc1ccc2cc3[n+](cc2c1OCc1cn(-c2ccc(S(N)(=O)=O)cc2)nn1)CCc1cc2c(cc1-3)OCO2 [Compound 41, 10-Methoxy-9-((1–(4-sulfamoylphenyl)-1H-1,2,3-triazol-4-yl)methoxy)-5,6-dihydro-[1,3]dioxolo[4,5-g]isoquinolino[3,2-a]isoquinolin-7-ium hexafluorophosphate] | 307.1 | 8.5 | 2.7 ± 0.2 nM | 135.9 | 3.8 | 6.1 ± 0.3 nM | 829 ± 50.3 nM | 22.9 ± 1.4 nM |  |  |  |  | 15.0 °C | 2.0 °C | 5.5 °C | −4.0 °C | +2.5 °C | 14.5 °C | 2.5 °C | 
COc1ccc2cc3[n+](cc2c1OCc1cn(CCCOc2ccc4ccc(=O)oc4c2)nn1)CCc1cc2c(cc1-3)OCO2 [Compound 42, 10-Methoxy-9-((1–(3-((2-oxo-2H-chromen-7-yl)oxy)propyl)-1H-1,2,3-triazol-4-yl)methoxy)-5,6-dihydro-[1,3]dioxolo[4,5-g]isoquinolino[3,2-a]isoquinolin-7-ium hexafluorophosphate] | > 284.9 | > 284.9 |  | > 980.4 | > 980.4 |  |  |  | 35.1 ± 2.8 nM | 10.2 ± 0.8 nM | > 100000 nM | > 100000 nM | 17.0 °C | 4.0 °C | 10.5 °C | 1.0 °C | +0.5 °C | 16.0 °C | 4.0 °C | 
COc1ccc2cc3[n+](cc2c1OCc1cn(CCCCOc2ccc4ccc(=O)oc4c2)nn1)CCc1cc2c(cc1-3)OCO2 [Compound 43, 10-Methoxy-9-((1–(4-((2-oxo-2H-chromen-7-yl)oxy)butyl)-1H-1,2,3-triazol-4-yl)methoxy)-5,6-dihydro-[1,3]dioxolo[4,5-g]isoquinolino[3,2-a]isoquinolin-7-ium hexafluorophosphate] | > 392.2 | > 392.2 |  | > 2381 | > 2381 |  |  |  | 25.5 ± 1.5 nM | 4.2 ± 0.3 nM | > 100000 nM | > 100000 nM | 16.5 °C | 3.5 °C | 7.0 °C | −2.5 °C | -0.5 °C | 14.0 °C | 2.0 °C | 
COc1ccc2cc3[n+](cc2c1OCc1cn(CCCCCOc2ccc4ccc(=O)oc4c2)nn1)CCc1cc2c(cc1-3)OCO2 [Compound 44, 10-Methoxy-9-((1–(5-((2-oxo-2H-chromen-7-yl)oxy)pentyl)-1H-1,2,3-triazol-4-yl)methoxy)-5,6-dihydro-[1,3]dioxolo[4,5-g]isoquinolino[3,2-a]isoquinolin-7-ium hexafluorophosphate] | > 1041 | > 1041 |  | > 689.7 | > 689.7 |  |  |  | 9.6 ± 0.5 nM | 14.5 ± 0.9 nM | > 100000 nM | > 100000 nM | 17.5 °C | 4.5 °C | 7.5 °C | −2.0 °C | +1.0 °C |  | >13.0 °C | ΔΔT1/2 c-Myc (c-Myc; listed as C-1,6): > 13.0 °C

More lines, main results first:

Selectivity index (SI) I/IX (hCA IX) | Selectivity index (SI) II/IX (hCA IX) | Ki (hCA IX; [1]) | Selectivity index (SI) I/XII (hCA XII) | Selectivity index (SI) II/XII (hCA XII) | Ki (hCA XII; [1]) | Ki (hCA I; [2]) | Ki (hCA II; [2]) | Ki (hCA IX; [3]) | Ki (hCA XII; [3]) | Ki (hCA I; [3]) | Ki (hCA II; [3]) | SMILES | ΔT1/2 c-Kit1 (c-Kit1) | ΔΔT1/2 c-Kit1 (c-Kit1) | ΔT1/2 Tel23 (Tel23) | ΔΔT1/2 Tel23 (Tel23) | ΔT1/2 Hairpin (Hairpin) | ΔT1/2 c-Myc (c-Myc) | ΔΔT1/2 c-Myc (c-Myc) | other results
> 194.2 | > 194.2 |  | > 1852 | > 1852 |  |  |  | 51.5 ± 3.6 nM | 5.4 ± 0.3 nM | > 100000 nM | > 100000 nM | COc1ccc2cc3[n+](cc2c1OCc1cn(-c2ccc4c(C)cc(=O)oc4c2)nn1)CCc1cc2c(cc1-3)OCO2 [Compound 45, 10-Methoxy-9-((1–(4-methyl-2-oxo-2H-chromen-7-yl)-1H-1,2,3-triazol-4-yl)methoxy)-5,6-dihydro-[1,3]dioxolo[4,5-g]isoquinolino[3,2-a]isoquinolin-7-ium hexafluorophosphate] | 16.5 °C | 3.5 °C | 7.0 °C | −2.5 °C | +2.5 °C |  | >13.0 °C | ΔΔT1/2 c-Myc (c-Myc; listed as C-1,0c): > 13.0 °C
4.2 | 1.2 | 17.8 ± 0.9 nM | 2.1 | 0.6 | 35.9 ± 2.1 nM | 75.1 ± 5.4 nM | 21.5 nM and 22.1 nM |  |  |  |  | COc1ccc2cc3[n+](cc2c1OCCCS(N)(=O)=O)CCc1cc2c(cc1-3)OCO2 [Compound 47, 10-methoxy-9–(3-sulfamoylpropoxy)-5,6-dihydro-[1,3]dioxolo[4,5-g]isoquinolino[3,2-a]isoquinolin-7-ium hexafluorophosphate] | 15.5 °C | 2.5 °C | 6.5 °C | −3.0 °C | +2.0 °C | 12.5 °C | 0.5 °C | 
